This note sets out measurements from US20260364184A1, “COMPOUND BASED ON OXOISOINDOLINYL-SUBSTITUTED TETRAHYDROPYRIMIDINE-DIONE AND USE THEREOF” (GLUETACS THERAPEUTICS (SHANGHAI) CO., LTD., priority 2023, published 2026).

Like-named read-outs stand apart in the source and are kept apart here.

In this assay the test system is Human myeloid monocytic leukemia cell line (MV-4-11). Nature of the assay: Inhibition of MV-4-11 cell proliferation (CellTiter luminescent viability). To be noted: Homo sapiens, MV4-11, 96 hours; for inhibition at 0.01 µM: MV-4-11, 10 nM, read-out: Inhibition Rate at 10 nM (%); for inhibition at 0.5 µM: MV-4-11, 500 nM, read-out: Inhibition Rate at 500 nM (%). Format: cell-based. As to the method:
The tumor cells used herein were cultured in a cell culture medium listed in table 3 at 37 °C in an incubator with 5% CO2. Prior to experimentation, all cell lines used were correctly identified by STR profiling, and tested negative for mycoplasma contamination using a mycoplasma detection kit through routine screenings.
The IC50 values of the compounds of the present disclosure (including the compounds in Table 1, Table 2, and Examples 1-468) were determined using the CellTiter-Meiluncell Luminescent Cell Viability Assay Kit from Dalian Meilun Biotech Co., Ltd. The detailed procedure is as follows: Tumor cells were seeded in 96-well cell culture plates at the densities specified in Table 4. On the following day, the test compounds of the present disclosure were subjected to serial dilution. The dilution can be performed according to one of the following two methods: • (1) The first dilution method: The test compounds of the present disclosure (including the compounds in Table 1, Table 2, and Examples 1-468) were subjected to 5-fold serial dilutions starting from a highest concentration of 2000 μM, resulting in a total of 9 concentrations from high to low (2000, 400, 80, 16, 3.2, 0.64, 0.128, 0.0256, 0.00512 μM). Subsequently, 0.5 μL of the test compound dilution was transferred into the 96-well plate containing the cells, with each well containing 100 μL of cell culture medium. […] Into the 96-well plate, the diluted test compounds and corresponding detection reagents were added, resulting in final test compound concentrations of 500 nM and 10 nM, respectively. The experimental procedure is described below using the diluted 2 μM test compound as an example.
0.5 μL of the aforementioned diluted compound of the present disclosure (including the compounds in Table 1, Table 2, and Examples 1-468) was added to the seeded cells in 100 μL of medium, yielding a final test compound concentration of 10 nM. After the cells were treated with the compounds of the present disclosure for a specified period, the cell viability assay reagent was added to the culture medium according to the kit's instructions to determine cell viability. […] All controls were treated using the same procedure as the compounds of the present disclosure. The growth inhibition curves for the compounds of the present disclosure were plotted using Prism GraphPad software, and the IC50 values were calculated therefrom.

The mark [1] stands for this setting: Table IA3, IRAK4 inhibitor-based.
[2] abbreviates: Table IL2, BCR-ABL inhibitor-based.

Regarding `CC(C)(O)c1cc2nn(C3CCN(Cc4ccc5c(c4)CN(N4CCC(=O)NC4=O)C5=O)CC3)cc2cc1NC(=O)c1cccc(C(F)(F)F)n1` [GT-05746, N-(2-(1-((2-(2,4-dioxotetrahydropyrimidin-1(2H)-yl)-1-oxoisoindolin-5-yl)methyl)piperidin-4-yl)-6-(2-hydroxypropan-2-yl)-2H-indazol-5-yl)-6-(trifluoromethyl) picolinamide], under setting [1], the inhibition (usually the drop in the measured response relative to a control, in per cent) at 0.01 µM was 10 to 20% and the inhibition at 0.5 µM was 60 to 80%.
With `CN(c1nccnc1CNc1nc(Nc2ccc(N3CCN(Cc4ccc5c(c4)CN(N4CCC(=O)NC4=O)C5=O)CC3)cc2)ncc1C(F)(F)F)S(C)(=O)=O` [GT-07504, N-(3-(((2-((4-(4-((2-(2,4-dioxotetrahydropyrimidin-1(2H)-yl)-1-oxoisoindolin-5-yl)methyl)piperazin-1-yl)phenyl)amino)-5-(trifluoromethyl)pyrimidin-4-yl)amino)methyl)pyrazin-2-yl)-N-methylmethanesulfonamide], under “Table IG2, FAK inhibitor-based”, the inhibition at 0.01 µM is -5 to 0% and the inhibition at 0.5 µM was 80 to 100%.
Take `CN(c1nccnc1CNc1nc(Nc2ccc(N3CCC(N4CCN(Cc5ccc6c(c5)CN(N5CCC(=O)NC5=O)C6=O)CC4)CC3)cc2)ncc1C(F)(F)F)S(C)(=O)=O` [GT-08138, N-(3-(((2-((4-(4-(4-((2-(2,4-dioxotetrahydropyrimidin-1(2H)-yl)-1-oxoisoindolin-5-yl)methyl)piperazin-1-yl)piperidin-1-yl)phenyl)amino)-5-(trifluoromethyl)pyrimidin-4-yl)amino)methyl)pyrazin-2-yl)-N-methylmethanesulfonamide]: for the setting “Table IG2, FAK inhibitor-based”, the inhibition at 0.01 µM lay within 20 to 30% and the inhibition at 0.5 µM is 80 to 100%.
For `CN(Cc1ccc2c(c1)CN(N1CCC(=O)NC1=O)C2=O)C1CCN(c2ccc(Nc3ncc(C(F)(F)F)c(NCc4cccc(N(C)S(C)(=O)=O)c4)n3)cc2)CC1` [GT-08142, N-(3-(((2-((4-(4-(((2-(2,4-dioxotetrahydropyrimidin-1(2H)-yl)-1-oxoisoindolin-5-yl)methyl)(methyl)amino)piperidin-1-yl)phenyl)amino)-5-(trifluoromethyl)pyrimidin-4-yl)amino)methyl)phenyl)-N-methylmethanesulfonamide] the same measures were 40 to 50% and 80 to 100%.
For the compound `CN(c1cccc(CNc2nc(Nc3ccc(N4CCC(N5CCN(Cc6ccc7c(c6)CN(N6CCC(=O)NC6=O)C7=O)CC5)CC4)cc3)ncc2C(F)(F)F)c1)S(C)(=O)=O` [GT-08144, N-(3-(((2-((4-(4-(4-((2-(2,4-dioxotetrahydropyrimidin-1(2H)-yl)-1-oxoisoindolin-5-yl)methyl)piperazin-1-yl)piperidin-1-yl)phenyl)amino)-5-(trifluoromethyl)pyrimidin-4-yl)amino)methyl)phenyl)-N-methylmethanesulfonamide], under “Table IG2, FAK inhibitor-based”, the inhibition at 0.01 µM is 30 to 40% and the inhibition at 0.5 µM fell in the range of 80 to 100%.
Consider `Cc1ccc(C(=O)Nc2ccc(CN3CCN(Cc4ccc5c(c4)C(=O)N(N4CCC(=O)NC4=O)C5=O)CC3)c(C(F)(F)F)c2)cc1C#Cc1cnc2cccnn12` [GT-08217, N-(4-((4-((2-(2,4-dioxotetrahydropyrimidin-1(2H)-yl)-1,3-dioxoisoindolin-5-yl)methyl)piperazin-1-yl)methyl)-3-(trifluoromethyl)phenyl)-3-(imidazo[1,2-b]pyridazin-3-ylethynyl)-4-methylbenzamide], for which, under setting [2], the inhibition at 0.01 µM lay within 10 to 15% and the inhibition at 0.5 µM was 80 to 100%.
For `Cc1ccc(C(=O)Nc2ccc(N3CCN(Cc4ccc5c(c4)CN(N4CCC(=O)NC4=O)C5=O)CC3)c(C(F)(F)F)c2)cc1C#Cc1cnc2cccnn12` [GT-08218, N-(4-(4-((2-(2,4-dioxotetrahydropyrimidin-1(2H)-yl)-1-oxoisoindolin-5-yl)methyl)piperazin-1-yl)-3-(trifluoromethyl)phenyl)-3-(imidazo[1,2-b]pyridazin-3-ylethynyl)-4-methylbenzamide] the same measures were 5 to 10% and 80 to 100%.
